Measurements: patent publication US5969017A, “Methods of treating or preventing cardiac arrhythmia” (Merck & Co., Inc., priority 1997, dated 1999)
“Also recorded” adds a separate entry of the source. Like-named read-outs stand apart in the source and are kept apart here.

Target: T1, hKv1.5 expressed in Chinese Hamster Ovary (CHO) cells (Homo sapiens, UniProt P22460)
T1 construct: expressed in transfected cells; host or cells: CHO-K1 cells (CHOKI in source), pcDNAI/Neo plasmid, G418-selected clones
Assay: Voltage clamp measurement of hKv1.5 block (rested state, use-dependent, rate-dependent) in CHO cells
Format: cell-based
Conditions: for Rate-Dpdnt Ratio: 3 Hz vs 1 Hz, last pulse, <1 = rate-dependent; for Use-Dpdnt Ratio: 10th vs 1st pulse @ 1 Hz, <1 = use-dependent; for selective blockade of hKv1.5 (in words): relative to other cardiac K+ channels; for rate-dependent ratio for block of hKv1.5 (bound) / use-dependent ratio for block of hKv1.5 (bound): summary of Table 1
Procedure: A. Measurement of Kv1.5 in CHO cells
Expression of Kv1.5 in CHO Cells
A cDNA encoding Kv1.5, isolated from a human fetal heart library, was subcloned into pcDNAI/Neo (Invitrogen) as a Hind III--Xba I fragment.
CHOKI cells were plated at 2.7×10^4 cells/60 mm dish and incubated at 37° C., in a 5% CO2 environment for three days. Cells were then washed twice and covered with 3 ml of OptiMEM medium (Gibco). Plasmid/DOTAP solution (consisting of […] of Kv1.5 in pcDNAI/Neo and […] DOTAP transfection reagent (Boehringer Mannheim) in 1 ml of OptiMEM) was added dropwise to each plate while swirling. Plates were incubated overnight and the media then changed to 5 mls of F12 (Gibco) supplemented with 10% FBS (Sigma), 1,000 U/ml penicillin […] streptomycin (Gibco), and 2 mM glutamine (Gibco). After two more days, the cells were trypsinized and replated on 100 mm dishes in supplemented F12 media including 1 mg/ml G418 (Gibco). The medium was changed daily until nontransfected cells were killed. Cell lines were grown from individual clones and tested for expression of Kv1.5 using both the ^86 RB efflux assay and voltage clamp protocols. […] These cells were maintained in culture and on each experimental day were freshly isolated by mild trypsinization.
The patch-clamp technique was used to record ionic currents in the whole-cell configuration. Patch pipettes were obtained using a two stage puller from square bore (1.0 mm o.d.) borosillicate capillary tubing. Pipettes were filled with the following solution (in mM/L): 110 K-Gluconate or K-Aspartate, 20 KCl, 5 MgATP, 5 EGTA, 5-10 HEPES, pH 7.2. The electrodes had tip resistances ranging from 3 to 10 Mohm when filled with this solution. Following seal formation, the membrane was ruptured by gentle suction to establish the whole-cell configuration, and negative pressure was maintained on the pipette using a 1 ml gas-tight syringe attached via air tight tubing to the suction port of the microelectrode holder. […] Currents were sampled at 5 kHz using an Axopatch 200 A amplifier (Axon Instruments) or a List EPC-7 clamp amplifier (List Electronic) and were low pass filtered at 1 kHz.
Measurements of Kv1.5 Expressed Currents:
Kv1.5 currents were elicited by 150 ms depolarizing test pulses to +40 mV from a holding potential of -80 mV. The effects of test agents were assessed at steady-state. Data was analyzed as % block from control current amplitude. The amplitude of Kv1.5 was measured as the amplitude of the time-dependent net outward current at the end of the test pulse, relative to the holding current level. […] All experiments were performed at room temperature (22-24° C.).
C. Measurement of Use-Dependent and Rate-Dependent Block.
Pulses were applied in 10 second long trains delivered after 30 second rest intervals at frequencies of 1 Hz (10 pulses) or 3 Hz (30 pulses). Percent block of the current is defined as the % decrease in the current amplitude produced by an agent during a given pulse relative to the control current amplitude for that pulse. Rested-state block is the block of the current during the first pulse in a train following the 30 sec rest period. Use-dependent block is block that occurs to a progessively greater extent with each successive depolarization in a train or sequence of pulses or depolarizations delivered at a given rate or frequency. Thus, during a train of 10 depolarizations at frequency of 1 Hz, use-dependent block is assessed as the ratio of the amount of block for the 10th pulse relative to block for the 1st pulse (rested state block) of the train. Rate-dependent block is block that occurs to a greater extent or preferentially at faster rates of depolarization or heart rates. Thus, rate-dependent block is assessed as the ratio of the amount of block of the current during the last pulse of the 10 sec train at 3 Hz vs. 1 Hz.

[1] = 30 nM, 1st pulse @ 1 Hz, +40 mV from -80 mV, read-out: Average % Block, Rested State, 1st pulse
[2] = 30 nM, 10th pulse @ 1 Hz, read-out: Average % Block, Use-Dpdnt, 10th pulse
[3] = 30 nM, 30th pulse @ 3 Hz, read-out: Average % Block, Rate-Dpdnt, 30th pulse
[4] = 100 nM, 1st pulse @ 1 Hz, read-out: Average % Block, Rested State, 1st pulse
[5] = 100 nM, 10th pulse @ 1 Hz, read-out: Average % Block, Use-Dpdnt, 10th pulse
[6] = 100 nM, 30th pulse @ 3 Hz, read-out: Average % Block, Rate-Dpdnt, 30th pulse
[7] = 300 nM, 1st pulse @ 1 Hz, read-out: Average % Block, Rested State, 1st pulse
[8] = 300 nM, 10th pulse @ 1 Hz, read-out: Average % Block, Use-Dpdnt, 10th pulse

T1 sequence (P22460 whole entry): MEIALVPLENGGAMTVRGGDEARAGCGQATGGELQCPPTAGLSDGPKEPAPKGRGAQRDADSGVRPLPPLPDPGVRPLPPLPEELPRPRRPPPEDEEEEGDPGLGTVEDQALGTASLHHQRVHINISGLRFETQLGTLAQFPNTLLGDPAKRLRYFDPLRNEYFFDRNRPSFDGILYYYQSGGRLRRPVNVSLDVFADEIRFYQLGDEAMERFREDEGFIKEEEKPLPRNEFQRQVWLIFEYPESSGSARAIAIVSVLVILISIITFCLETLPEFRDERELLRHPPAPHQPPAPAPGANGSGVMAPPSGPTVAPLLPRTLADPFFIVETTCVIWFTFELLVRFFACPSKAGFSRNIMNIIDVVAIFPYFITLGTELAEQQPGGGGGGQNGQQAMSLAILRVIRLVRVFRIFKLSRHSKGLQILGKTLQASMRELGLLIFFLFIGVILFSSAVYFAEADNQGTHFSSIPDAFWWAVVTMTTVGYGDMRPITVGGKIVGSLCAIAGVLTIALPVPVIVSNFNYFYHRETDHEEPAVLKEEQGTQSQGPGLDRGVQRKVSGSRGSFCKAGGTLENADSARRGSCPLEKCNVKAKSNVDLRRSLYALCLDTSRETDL

## CC1CCC(C(C)C)C(P(=O)(c2ccccc2)c2ccccc2)C1 (stereo not drawn) [A, (2-Isopropyl-5-methylcyclohexyl)diphenylphosphine oxide]
  rate-dependent block of hKv1.5 (in words): rate-dependent blockers; also recorded: strong rate-dependent profile
  use-dependent block of hKv1.5 (in words): use-dependentblockade
[1]
  inhibition at 0.03 µM: 21.2%
[2]
  inhibition at 0.03 µM: 38.5%
[3]
  inhibition at 0.03 µM: 57.5%
[4]
  inhibition at 0.1 µM: 32.1%
[5]
  inhibition at 0.1 µM: 64.6%
[6]
  inhibition at 0.1 µM: 82.9%
Listed as (2-isopropyl-5-methylcyclohexyl) diphenyl-phosphine oxide
  use-dependent block of hKv1.5 (in words): strong use-dependent profile

## Cc1cc(C)c(CP(=O)(c2ccccc2)c2ccccc2)c(-c2ccc(F)c(C)c2)c1 [B, 2-(Diphenylphosphinylmethyl)-4'-fluoro-3,5,3'-trimethyl-biphenyl]
  rate-dependent block of hKv1.5 (in words): rate-dependent blockers
  use-dependent block of hKv1.5 (in words): use-dependentblockade
  selective blockade of hKv1.5 (in words): selective blockade
  rate-dependent ratio for block of hKv1.5 (bound): < 1
  use-dependent ratio for block of hKv1.5 (bound): < 1
[4]
  inhibition at 0.1 µM: 23.3%
100 nM
  Rate-Dpdnt Ratio: 0.66
  Use-Dpdnt Ratio: 0.79
[5]
  inhibition at 0.1 µM: 29.6%
[6]
  inhibition at 0.1 µM: 44.9%
[7]
  inhibition at 0.3 µM: 43.5%
300 nM
  Rate-Dpdnt Ratio: 0.84
  Use-Dpdnt Ratio: 0.77
[8]
  inhibition at 0.3 µM: 56.6%
300 nM, 30th pulse @ 3 Hz, read-out: Average % Block, Rate-Dpdnt, 30th pulse
  inhibition at 0.3 µM: 67.5%

## COc1ccc(-n2nc(Sc3ccc(Cl)cc3)c(C)c(C#N)c2=O)cc1 [C, 6-(4-Chlorophenylthio)-2-(4-methoxyphenyl)-5-methyl-3-oxo-2,3-dihydropyridazine-4-carbonitrile]
  rate-dependent block of hKv1.5 (in words): rate-dependent blockers
  use-dependent block of hKv1.5 (in words): use-dependentblockade
  selective blockade of hKv1.5 (in words): selective blockade
  rate-dependent ratio for block of hKv1.5 (bound): < 1
  use-dependent ratio for block of hKv1.5 (bound): < 1
[1]
  inhibition at 0.03 µM: 6.6%
30 nM
  Rate-Dpdnt Ratio: 0.41
  Use-Dpdnt Ratio: 0.42
[2]
  inhibition at 0.03 µM: 15.7%
[3]
  inhibition at 0.03 µM: 38%
[4]
  inhibition at 0.1 µM: 51%
100 nM
  Rate-Dpdnt Ratio: 0.83
  Use-Dpdnt Ratio: 0.68
[5]
  inhibition at 0.1 µM: 75.5%
[6]
  inhibition at 0.1 µM: 91.1%

## COc1ccc(-n2nc(Sc3ccc(C)cc3)c(C)c(C#N)c2=O)cc1 [D]
  use-dependent block of hKv1.5 (in words): use-dependentblockade
  selective blockade of hKv1.5 (in words): selective blockade
  use-dependent ratio for block of hKv1.5 (bound): < 1
[4]
  inhibition at 0.1 µM: 31.1%
[5]
  inhibition at 0.1 µM: 34%
100 nM
  Use-Dpdnt Ratio: 0.91
[7]
  inhibition at 0.3 µM: 52%
[8]
  inhibition at 0.3 µM: 62.5%
300 nM
  Use-Dpdnt Ratio: 0.83
